Holding throughout (assay type): biochemical
One test deals with T1, HDAC1 (Homo sapiens, UniProt Q13547).
T1 construct: purchased Cayman Chemicals
The test can be described thus: HDAC1 IC50 (Trypsin-coupled assay and Caliper endpoint assay). The conditions noted are these: competitive inhibition with a peptide substrate. As to the method: HP-1 and HP-2 IC50 values for HDAC1 were determined using the Trypsin-coupled assay as well as the Caliper endpoint assay. HP-1 and HP-2 IC50 values for HDAC2, HDAC3, HDAC6 and HDAC8 were determined with the Caliper endpoint assay.
In vitro HDAC 1 end point enzymatic assays were performed in optimized 96-well format as previously described^3,4 with the following modifications. Reactions were performed in volume of 120 uL with 30 ng of full-length, recombinant HDAC1 (BPS Biosciences). TCEP was excluded from the assay buffer. HDAC1 was pre-incubated with varying concentrations of HP-1 or HP-2, or DMSO vehicle for 30 minutes. Fluorophore-conjugated acetyl-lysine tripeptide substrate was added at a concentration equivalent to the substrate Km, 11 uM, and the deacetylation reaction was allowed to run for 45 minutes at RT. […] Fluorescence intensity of the aminomethylcoumarin liberated by deacetylase and trypsin enzymatic activity was monitored at 460 nm using a multilabel plate reader (EnVision, Perkin-Elmer) every 5 minutes until stable, about 25 minutes. […]
IC50 measurements. HP-1 and HP-2 IC50 values for HDAC1 were determined using the Trypsin-coupled assay as well as the Caliper endpoint assay. HP-1 and HP-2 IC50 values for HDAC2, HDAC3, HDAC6 and HDAC8 were determined with the Caliper endpoint assay (full experimental details in Example 1).

The target in the next test is T2, Sirtuin 1 (Homo sapiens, UniProt Q96EB6).
T2 construct: purchased Cayman Chemicals
T2 sequence (Q96EB6 1-747): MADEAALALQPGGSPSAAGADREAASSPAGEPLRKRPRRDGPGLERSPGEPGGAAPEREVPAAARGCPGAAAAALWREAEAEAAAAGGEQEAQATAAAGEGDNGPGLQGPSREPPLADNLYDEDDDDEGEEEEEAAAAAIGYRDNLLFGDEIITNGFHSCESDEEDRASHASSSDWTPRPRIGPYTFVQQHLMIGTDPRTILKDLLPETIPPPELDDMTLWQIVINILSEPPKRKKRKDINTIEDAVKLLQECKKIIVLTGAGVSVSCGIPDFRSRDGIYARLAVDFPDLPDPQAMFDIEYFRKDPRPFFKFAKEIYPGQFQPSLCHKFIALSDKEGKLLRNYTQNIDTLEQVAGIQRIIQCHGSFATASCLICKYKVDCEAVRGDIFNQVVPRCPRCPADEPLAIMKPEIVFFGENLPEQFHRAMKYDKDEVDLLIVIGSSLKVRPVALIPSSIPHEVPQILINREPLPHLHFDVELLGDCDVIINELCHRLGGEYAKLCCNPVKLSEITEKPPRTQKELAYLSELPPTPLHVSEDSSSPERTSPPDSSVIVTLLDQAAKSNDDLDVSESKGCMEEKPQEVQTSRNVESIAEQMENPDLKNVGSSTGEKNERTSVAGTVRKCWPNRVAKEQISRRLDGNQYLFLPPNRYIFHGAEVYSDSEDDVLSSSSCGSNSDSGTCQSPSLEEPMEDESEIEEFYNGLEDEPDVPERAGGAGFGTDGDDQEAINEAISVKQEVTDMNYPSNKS
The test is described as follows: LCMS assay of sirtuin enzymatic action on HP-1. The following applies: Sirtuin 1, −SAHA; 5 μM HP-1, 12 hours at 37° C. The procedure:
(§1) The enzymatic cleavage of HP-1 was analyzed by performing LCMS assays with sirtuin 1 and 3 (Cayman Chemicals) and the proteases chymotrypsin (Sigma-Aldrich), cathepsin (EMD Millipore), and pepsin* (Sigma-Aldrich). Solutions containing (i) vehicle with DMSO in HDAC buffer, (ii) 5 μM HP-1 in HDAC buffer, and (iii) 5 μM HP-1 and the enzyme in HDAC buffer were incubated for 12 hours at 37° C. Following incubation, a 20 μL aliquot of supernatant from each sample was analyzed by LCMS. Deacetylation of HP-1 was investigated by screening for the DHP-1 (M+H)^+ ion following positive electrospray ionization. All assay samples were analyzed in triplicate. […]
(§2) HP-1 was not altered by sirtuins 1 and 3 or the proteases chymotrypsin, cathepsin and pepsin, as determined by LCMS. […] For Cathepsin B, the cleavage of the enzyme substrate, z-RR-pNA (Santa Cruz Biotechnology, Dallas, Tex.) was monitored using a Wallac EnVision 2103 Multilabel fluorescence plate reader (PerkinElmer, Waltham, Mass.) with a 405 nm excitation filter, a 406 nm emission filter, and a gain of 150. The cleavage of the pepsin substrate, Ac-Phe-Tyr-OH (Chem-Impex Inc.), was monitored by LCMS at pH 4. […]

In another test the target is T3, Sirtuin 3 (Homo sapiens, UniProt Q9NTG7).
T3 construct: purchased Cayman Chemicals
T3 sequence (Q9NTG7 1-399): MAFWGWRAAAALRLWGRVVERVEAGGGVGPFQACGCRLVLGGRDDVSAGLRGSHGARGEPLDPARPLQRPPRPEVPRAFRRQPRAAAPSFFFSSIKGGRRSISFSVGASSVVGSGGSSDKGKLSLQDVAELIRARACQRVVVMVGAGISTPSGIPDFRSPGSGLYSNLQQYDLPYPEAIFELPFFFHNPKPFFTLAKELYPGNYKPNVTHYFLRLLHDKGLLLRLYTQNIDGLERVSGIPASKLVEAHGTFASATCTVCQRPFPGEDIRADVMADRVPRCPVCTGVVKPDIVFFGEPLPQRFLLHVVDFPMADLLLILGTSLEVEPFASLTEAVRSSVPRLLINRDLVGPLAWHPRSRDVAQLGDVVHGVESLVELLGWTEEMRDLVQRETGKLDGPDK
The test is described as follows: LCMS assay of sirtuin enzymatic action on HP-1. The conditions noted are these: Sirtuin 3, −SAHA; 5 μM HP-1, 12 hours at 37° C. The procedure:
as §1, §2

T1 sequence (Q13547 whole entry): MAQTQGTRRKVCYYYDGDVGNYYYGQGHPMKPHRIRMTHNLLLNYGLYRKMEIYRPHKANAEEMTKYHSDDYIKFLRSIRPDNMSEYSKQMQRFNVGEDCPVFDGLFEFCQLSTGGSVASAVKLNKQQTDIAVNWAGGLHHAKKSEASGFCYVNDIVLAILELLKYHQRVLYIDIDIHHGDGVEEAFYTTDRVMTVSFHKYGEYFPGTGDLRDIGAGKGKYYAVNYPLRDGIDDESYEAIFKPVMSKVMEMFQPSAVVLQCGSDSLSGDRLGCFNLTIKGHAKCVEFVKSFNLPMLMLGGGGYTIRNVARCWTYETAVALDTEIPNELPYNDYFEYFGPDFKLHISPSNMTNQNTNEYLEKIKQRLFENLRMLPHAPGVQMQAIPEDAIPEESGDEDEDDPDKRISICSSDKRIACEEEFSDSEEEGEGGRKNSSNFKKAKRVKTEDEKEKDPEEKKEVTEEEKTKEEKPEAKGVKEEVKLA

Broadly, the IC50 is the concentration that inhibits the measured activity by half. Low values mean inhibition by little substance, high ones a need for much substance. As to `CC(=O)NC=CCCCCNC(=O)CCCCCNc1ccc([N+](=O)[O-])c2nonc12` [HP-1], on HDAC1 (HDAC1, table does not say whether Trypsin-coupled or Caliper assay), the IC50 came out at 35.8 µM. Further, on HDAC1, the “inhibition of HDAC1 (in words)” value was “weakly inhibit”. Besides, the “% HP-1 to DHP-1” value on Sirtuin 1 and at Sirtuin 3 was 0% throughout.

Values taken from patent publication US20160138077A1, “MONITORING AND ASSESSING DEACETYLASE ENZYME ACTIVITY” (THE GENERAL HOSPITAL CORPORATION, priority 2013, published 2016).
